Results: patent US10758620B2, “Potentiated antimicrobial agents” (SEPTEOS, priority 2014, dated 2020)
Values after ≈ are worked out from the molar mass of the structure shown. Where two headings read alike, the source gives them in different places. Blank lines part the entries; values can stand above or below the compound they belong to.

Columns and labels:
Pseudomonas Strain 08132 = experiment: Etest, Pseudomonas Strain 08132; format: cell-based
Description: (§1) The corresponding tests are made based on the usual MIC test: the Etest® (Biomerieux) strip is deposited onto the surface of a seeded agar medium in which the booster has been incorporated. This test enables solvent effect risks, that is a possible interaction with the solvent used in vitro, to be minimised.
(§2) The control corresponds to the test made without cineol. A control is made in each solvent tested: distilled water, Tween/water and DMSO.
(§3) ED control=antibiotic alone in distilled water
(§4) DMSO control=antibiotic alone in DMSO
(§5) TE control=antibiotic alone in Tween® 80

MSSA 8237 = experiment: Etest, staphylococci MSSA 8237; format: cell-based; details: MSSA 8237
Description: as §1, §2, §3, §4, §5

Pseudomonas Strain 08131 = experiment: Etest, Pseudomonas Strain 08131; format: cell-based; details: Pseudomonas, STRAIN08131, Strain 08131, read-out: MIC
Description: as §1, §2, §3, §4, §5

Staphylococcus = experiment: MIC measurement in agar medium (dilution test), Staph; format: cell-based; details: Staphylococcus, read-out: MIC of the amox alone; staphylococci
Description: Inhibitory minimum concentration measurement tests are made in a solid agar medium according to international standards in force (CLSI M7-A9 Jan 12 standards): dispersion of the compounds to be tested in a Mueller Hinton gelose. An adaptation relating to the hydrophobicity of compounds and compositions is however necessary to disperse them in the medium: dilution of the compounds in a solvent. The compounds and compositions incorporated in the agar medium can be diluted beforehand in one or more solvents (Tween® 80 diluted with water, Tween® 80 diluted with […], DMSO diluted with water). The strains are deposited onto the agar surface with a steers apparatus. In the examples, different dissolution methods for products are tested in parallel to circumvent the problems of water/solvent distribution coefficient of the molecules (antimicrobial and potentiator) whereas the bacteria grow only in the aqueous phase. The technical requirement will not intervene in in vivo tests. The same dilution methods can be implemented in a liquid medium (microplates and tubes). The same methodology is implemented with fungi. […] MIC measurement: the minimum inhibitory concentration measurement tests are made in an agar solid medium according to international standards in force (CLSI standards), according to the previously defined protocol. […] The booster contribution as compared with the MIC of the antibiotic alone is expressed in a (MIC ATB)/(MIC ATB+booster) ratio. Thereby, gains are defined: […]

MRSA 10178 = experiment: Etest, staphylococci MRSA 10178; format: cell-based
Description: as §1, §2, §3, §4, §5

E. Coli Strain 08138 = experiment: Etest, E. Coli Strain 08138; format: cell-based; details: Escherichia coli, Strain 08138
Description: as §1, §2, §3, §4, §5

E. Coli Strain 8150 = experiment: Etest, E. Coli Strain 8150; format: cell-based; details: Escherichia coli, Strain 8150
Description: as §1, §2, §3, §4, §5

[1] = orally, cats; cited from earlier work
[2] = orally, rats; cited from earlier work
candidas = experiment: MIC measurement (dilution test) on yeast strains; format: cell-based, Candida; details: Candida; read-out: MIC of sertaconazole alone
Description: Inhibitory minimum concentration measurement tests are made in a solid agar medium according to international standards in force (CLSI M7-A9 Jan 12 standards): dispersion of the compounds to be tested in a Mueller Hinton gelose. An adaptation relating to the hydrophobicity of compounds and compositions is however necessary to disperse them in the medium: dilution of the compounds in a solvent. The compounds and compositions incorporated in the agar medium can be diluted beforehand in one or more solvents (Tween® 80 diluted with water, Tween® 80 diluted with […], DMSO diluted with water). The strains are deposited onto the agar surface with a steers apparatus. In the examples, different dissolution methods for products are tested in parallel to circumvent the problems of water/solvent distribution coefficient of the molecules (antimicrobial and potentiator) whereas the bacteria grow only in the aqueous phase. The technical requirement will not intervene in in vivo tests. The same dilution methods can be implemented in a liquid medium (microplates and tubes). The same methodology is implemented with fungi. […] MIC measurement: the minimum inhibitory concentration measurement tests are made in an agar solid medium according to international standards in force (CLSI standards), according to the previously defined protocol. […] The booster contribution as compared with the MIC of the antibiotic alone is expressed in a (MIC ATB)/(MIC ATB+booster) ratio. Thereby, gains are defined: […] The yeast strains tested (n=33) belong to the […] albicans, Candida tropicalis, Candida krusei, Candida parapsilosis, Candida glabrata species.

[3] = system: Strain 09003, methicillin resistant S. aureus (MRSA); experiment: Resistance test (resistant mutants), Strain 09003; format: cell-based; details: Strain 09003, DMSO, 4 times the MIC, 48 h incubation, combinations 64/100
Method: (§6) After 48 h incubation, the presence or absence of colonies likely to be resistant mutants is observed.
(§7) ED control or DMSO=only distilled water or DMSO is added
(§8) Ciprofloxacine DMSO: addition of Ciprofloxacine in DMSO

[4] = system: Strain 10168, methicillin resistant S. aureus (MRSA); experiment: Resistance test (resistant mutants), Strain 10168; format: cell-based; details: Strain 10168, DMSO, 4 times the MIC, 48 h incubation, combinations 64/100
Method: as §6, §7, §8

[5] = DMSO control = antibiotic alone in DMSO
[6] = Tween water control = antibiotic alone
[7] = Staphylococcus aureus, MSSA, DMSO control = antibiotic alone in DMSO, read-out: MIC
[8] = Staphylococcus aureus, MSSA, ED control = antibiotic alone in distilled water, read-out: MIC
[9] = Staphylococcus aureus, MSSA, Tween water control = antibiotic alone, read-out: MIC
[10] = ED control = antibiotic alone in distilled water

Structure (SMILES): C[C@@H](O)[C@H]1C(=O)N2C(C(=O)O)=C(S[C@@H]3CN[C@H](C(=O)N(C)C)C3)[C@H](C)[C@H]12 [Meropenem, reference compound]
MIC (Pseudomonas Strain 08132; [5]): 12 µg/mL (≈ 31.3 µM)
MIC (Pseudomonas Strain 08132; Pseudomonas, STRAIN08132, ED control = antibiotic alone in distilled water, read-out: MIC): 12 µg/mL (≈ 31.3 µM)
MIC (Pseudomonas Strain 08132; [6]): 12 µg/mL (≈ 31.3 µM)
MIC (MSSA 8237; [7]): 0.25 µg/mL (≈ 0.652 µM)
MIC (MSSA 8237; [8]): 0.19 µg/mL (≈ 0.495 µM)
MIC (MSSA 8237; [9]): 0.25 µg/mL (≈ 0.652 µM)
MIC (Pseudomonas Strain 08131; [5]): 2 µg/mL (≈ 5.22 µM)
MIC (Pseudomonas Strain 08131; [10]): 1.5 µg/mL (≈ 3.91 µM)
MIC (Pseudomonas Strain 08131; [6]): 2 µg/mL (≈ 5.22 µM)

MIC (Staphylococcus): 0.25 to 32 µg/mL
Structure (SMILES): CC1(C)S[C@@H]2[C@H](NC(=O)[C@H](N)c3ccc(O)cc3)C(=O)N2[C@H]1C(=O)O [amox, amoxicillin, reference compound]

Structure (SMILES): CN(C)c1cc(NC(=O)CNC(C)(C)C)c(O)c2c1C[C@H]1C[C@H]3[C@H](N(C)C)C(O)=C(C(N)=O)C(=O)[C@@]3(O)C(O)=C1C2=O [Tigecycline, reference compound]
MIC (MRSA 10178; MRSA 10178, ED control = antibiotic alone in distilled water): 0.125 µg/mL (≈ 0.213 µM)
MIC (MRSA 10178; MRSA 10178, Tween water control = antibiotic alone): 0.125 µg/mL (≈ 0.213 µM)
MIC (MRSA 10178; Staphylococcus aureus, MRSA): 0.125 µg/mL (≈ 0.213 µM)
MIC (E. Coli Strain 08138; [5]): 0.38 µg/mL (≈ 0.649 µM)
MIC (E. Coli Strain 08138; [10]): 0.38 µg/mL (≈ 0.649 µM)
MIC (E. Coli Strain 08138; [6]): 0.38 µg/mL (≈ 0.649 µM)
MIC (E. Coli Strain 8150; [5]): 0.19 µg/mL (≈ 0.324 µM)
MIC (E. Coli Strain 8150; [10]): 0.125 µg/mL (≈ 0.213 µM)
MIC (E. Coli Strain 8150; [6]): 0.125 µg/mL (≈ 0.213 µM)

MIC (MSSA 8237; [5]): 1.5 µg/mL (≈ 4.49 µM)
MIC (MSSA 8237; [10]): 1 µg/mL (≈ 2.99 µM)
MIC (MSSA 8237; [6]): 0.5 µg/mL (≈ 1.5 µM)
Structure (SMILES): CC1(C)S[C@@H]2[C@H](NC(=O)Cc3ccccc3)C(=O)N2[C@H]1C(=O)O [Penicillin G, reference compound]

Structure (SMILES): Cc1ccc(C(C)C)cc1O [carvacrol]
lowest lethal dose [1]: 100 mg/kg
lowest lethal dose [2]: 100 mg/kg

MIC (MRSA 10178; Staphylococcus aureus, MRSA, MRSA 10178, DMSO control = antibiotic alone in DMSO, read-out: MIC): 6 µg/mL (≈ 14 µM)
MIC (MRSA 10178; Staphylococcus aureus, MRSA, MRSA 10178, ED control = antibiotic alone in distilled water, read-out: MIC): 6 µg/mL (≈ 14 µM)
MIC (MRSA 10178; Staphylococcus aureus, MRSA, MRSA 10178, Tween water control = antibiotic alone, read-out: MIC): 4 µg/mL (≈ 9.36 µM)
MIC (MSSA 8237; [7]): 6 µg/mL (≈ 14 µM)
MIC (MSSA 8237; [8]): 6 µg/mL (≈ 14 µM)
MIC (MSSA 8237; [9]): 6 µg/mL (≈ 14 µM)
Structure (SMILES): CO[C@@]1(NC(=O)Cc2cccs2)C(=O)N2C(C(=O)O)=C(COC(N)=O)CS[C@@H]21 [Cefoxitine, reference compound]

MIC (candidas): 0.06 to 16 µg/mL
Structure (SMILES): Clc1ccc(C(Cn2ccnc2)OCc2csc3c(Cl)cccc23)c(Cl)c1 (centres unmarked) [sertaconazole, reference compound]

Structure (SMILES): O=C(O)c1cn(C2CC2)c2cc(N3CCNCC3)c(F)cc2c1=O [Ciprofloxacine, ciprofloxacine, reference compound]
colonies likely to be resistant mutants [3]: numerous
colonies likely to be resistant mutants ([3]; listed as ciprofloxacine): many mutants
colonies likely to be resistant mutants [4]: invaded
colonies likely to be resistant mutants ([4]; listed as ciprofloxacine): many mutants
